Assay results: ChEMBL document CHEMBL3792365, “Dioxol and dihydrodioxin analogs of 2- and 3-phenylacetonitriles as potent anti-cancer agents with nanomolar activity against a variety of human cancer cells” (2016)

What was measured:
Format in all cases: functional
MDA-MB-468 = assay: Growth inhibition of human MDA-MB-468 cells at 10 uM after 48 hrs by sulforhodamine B assay; settings: MDA-MB-468, 48 h, values are per cent of control
[1] = Growth inhibition of human HCC2998 cells at 10 uM after 48 hrs by sulforhodamine B assay; settings: HCC 2998, 48 h, values are per cent of control
[2] = Growth inhibition of human IGROV1 cells at 10 uM after 48 hrs by sulforhodamine B assay; settings: IGROV-1, 48 h, values are per cent of control
786-0 = assay: Growth inhibition of human 786-0 cells at 10 uM after 48 hrs by sulforhodamine B assay; settings: 786-0, 48 h, values are per cent of control
[3] = Growth inhibition of human SF539 cells at 10 uM after 48 hrs by sulforhodamine B assay; settings: SF-539, 48 h, values are per cent of control
HT-29 = assay: Growth inhibition of human HT-29 cells at 10 uM after 48 hrs by sulforhodamine B assay; settings: HT-29, 48 h, values are per cent of control
SK-MEL-28 = assay: Growth inhibition of human SK-MEL-28 cells at 10 uM after 48 hrs by sulforhodamine B assay; settings: SK-MEL-28, 48 h, values are per cent of control
NCI-H460 = assay: Growth inhibition of human NCI-H460 cells at 10 uM after 48 hrs by sulforhodamine B assay; settings: NCI-H460, 48 h, values are per cent of control
KM12 = assay: Growth inhibition of human KM12 cells at 10 uM after 48 hrs by sulforhodamine B assay; settings: KM12, 48 h, values are per cent of control
[4] = Growth inhibition of human HCT15 cells at 10 uM after 48 hrs by sulforhodamine B assay; settings: HCT-15, 48 h, values are per cent of control
[5] = Growth inhibition of human SW620 cells at 10 uM after 48 hrs by sulforhodamine B assay; settings: SW-620, 48 h, values are per cent of control
NCI-H522 = assay: Growth inhibition of human NCI-H522 cells at 10 uM after 48 hrs by sulforhodamine B assay; settings: NCI-H522, 48 h, values are per cent of control
NCI-H226 = assay: Growth inhibition of human NCI-H226 cells at 10 uM after 48 hrs by sulforhodamine B assay; settings: NCI-H226, 48 h, values are per cent of control
[6] = Growth inhibition of human DU145 cells at 10 uM after 48 hrs by sulforhodamine B assay; settings: DU-145, 48 h, values are per cent of control
[7] = Growth inhibition of human HOP62 cells at 10 uM after 48 hrs by sulforhodamine B assay; settings: HOP-62, 48 h, values are per cent of control
SN12C = assay: Growth inhibition of human SN12C cells at 10 uM after 48 hrs by sulforhodamine B assay; settings: values are per cent of control
SR = assay: Growth inhibition of human SR cells at 10 uM after 48 hrs by sulforhodamine B assay; settings: values are per cent of control
T47D = assay: Growth inhibition of human T47D cells at 10 uM after 48 hrs by sulforhodamine B assay; settings: values are per cent of control
[8] = Growth inhibition of human TK10 cells at 10 uM after 48 hrs by sulforhodamine B assay; settings: TK-10, 48 h, values are per cent of control
[9] = Growth inhibition of human SNB19 cells at 10 uM after 48 hrs by sulforhodamine B assay; settings: SNB-19, 48 h, values are per cent of control
[10] = Growth inhibition of human SKOV3 cells at 10 uM after 48 hrs by sulforhodamine B assay; settings: SK-OV-3, 48 h, values are per cent of control
[11] = Growth inhibition of human OVCAR4 cells at 10 uM after 48 hrs by sulforhodamine B assay; settings: OVCAR-4, 48 h, values are per cent of control
NCI-H322M = assay: Growth inhibition of human NCI-H322M cells at 10 uM after 48 hrs by sulforhodamine B assay; settings: values are per cent of control
M14 = assay: Growth inhibition of human M14 cells at 10 uM after 48 hrs by sulforhodamine B assay; settings: M14, 48 h, values are per cent of control
A549 = assay: Growth inhibition of human A549/ATCC cells at 10 uM after 48 hrs by sulforhodamine B assay; settings: A549, 48 h, values are per cent of control
[12] = Growth inhibition of human COLO205 cells at 10 uM after 48 hrs by sulforhodamine B assay; settings: COLO 205, 48 h, values are per cent of control
[13] = Growth inhibition of human SNB75 cells at 10 uM after 48 hrs by sulforhodamine B assay; settings: SNB-75, 48 h, values are per cent of control
[14] = Growth inhibition of human RXF393 cells at 10 uM after 48 hrs by sulforhodamine B assay; settings: RXF 393, 48 h, values are per cent of control
K562 = assay: Growth inhibition of human K562 cells at 10 uM after 48 hrs by sulforhodamine B assay; settings: K562, 48 h, values are per cent of control
SK-MEL-2 = assay: Growth inhibition of human SK-MEL-2 cells at 10 uM after 48 hrs by sulforhodamine B assay; settings: SK-MEL-2, 48 h, values are per cent of control
ACHN = assay: Growth inhibition of human ACHN cells at 10 uM after 48 hrs by sulforhodamine B assay; settings: values are per cent of control
[15] = Growth inhibition of human UACC62 cells at 10 uM after 48 hrs by sulforhodamine B assay; settings: UACC-62, 48 h, values are per cent of control
[16] = Growth inhibition of human SF268 cells at 10 uM after 48 hrs by sulforhodamine B assay; settings: SF-268, 48 h, values are per cent of control
[17] = Growth inhibition of human Caki1 cells at 10 uM after 48 hrs by sulforhodamine B assay; settings: CAKI-1, 48 h, values are per cent of control
MDA-MB-231 = assay: Growth inhibition of human MDA-MB-231 cells at 10 uM after 48 hrs by sulforhodamine B assay; settings: MDA-MB-231, 48 h, values are per cent of control
MDA-MB-435 = assay: Growth inhibition of human MDA-MB-435 cells at 10 uM after 48 hrs by sulforhodamine B assay; settings: MDA-MB-435, 48 h, values are per cent of control
[18] = Growth inhibition of human NCI-ADR-RES cells at 10 uM after 48 hrs by sulforhodamine B assay; settings: values are per cent of control
[19] = Growth inhibition of human HCT116 cells at 10 uM after 48 hrs by sulforhodamine B assay; settings: HCT-116, 48 h, values are per cent of control
[20] = Growth inhibition of human BT549 cells at 10 uM after 48 hrs by sulforhodamine B assay; settings: BT-549, 48 h, values are per cent of control
SK-MEL-5 = assay: Growth inhibition of human SK-MEL-5 cells at 10 uM after 48 hrs by sulforhodamine B assay; settings: SK-MEL-5, 48 h, values are per cent of control

Structure (SMILES)	growth, % of control at 10 µM (MDA-MB-468) [%]	growth, % of control at 10 µM [1] [%]	growth, % of control at 10 µM [2] [%]	growth, % of control at 10 µM (786-0) [%]	growth, % of control at 10 µM [3] [%]	growth, % of control at 10 µM (HT-29) [%]	growth, % of control at 10 µM (SK-MEL-28) [%]	growth, % of control at 10 µM (NCI-H460) [%]	growth, % of control at 10 µM (KM12) [%]	growth, % of control at 10 µM [4] [%]	growth, % of control at 10 µM [5] [%]	growth, % of control at 10 µM (NCI-H522) [%]	growth, % of control at 10 µM (NCI-H226) [%]	growth, % of control at 10 µM [6] [%]	growth, % of control at 10 µM [7] [%]	growth, % of control at 10 µM (SN12C) [%]	growth, % of control at 10 µM (SR) [%]	growth, % of control at 10 µM (T47D) [%]	growth, % of control at 10 µM [8] [%]	growth, % of control at 10 µM [9] [%]	other results
COc1ccc(/C(C#N)=C/c2ccc3c(c2)OCCO3)cc1	14.8	55.7	71.3	80.2	63.7	21.8	75.3	33.4	27.8	43.4	28.8	39.3	81.2	84.7	68.3	72.1	-1.3	40.4	65.2	83.3	growth, % of control at 10 µM [10]: 81%; growth, % of control at 10 µM [11]: 94.6%; growth, % of control at 10 µM (NCI-H322M): 77.5%; growth, % of control at 10 µM (M14): 38.5%; growth, % of control at 10 µM (A549): 41.5%; growth, % of control at 10 µM [12]: 50.5%; growth, % of control at 10 µM [13]: 61.1%; growth, % of control at 10 µM [14]: 77.3%; growth, % of control at 10 µM (K562): 18.7%; growth, % of control at 10 µM (SK-MEL-2): 36%; growth, % of control at 10 µM (ACHN): 87.7%; growth, % of control at 10 µM [15]: 53.7%; growth, % of control at 10 µM [16]: 71.9%; growth, % of control at 10 µM [17]: 64.2%; growth, % of control at 10 µM (MDA-MB-231): 68.4%; growth, % of control at 10 µM (MDA-MB-435): -29.8%; growth, % of control at 10 µM [18]: 34.4%; growth, % of control at 10 µM [19]: 38.8%; growth, % of control at 10 µM [20]: 56.6%; growth, % of control at 10 µM (SK-MEL-5): 45%
N#C/C(=C\c1cc(F)cc(F)c1)c1ccc2c(c1)OCO2	102	94.6	121	94.6	97.8	109	115	103	97.6	99.4	105	132	102	109	91.9	106	84.6	102	119	110	growth, % of control at 10 µM [10]: 102%; growth, % of control at 10 µM [11]: 107%; growth, % of control at 10 µM (NCI-H322M): 121%; growth, % of control at 10 µM (M14): 99%; growth, % of control at 10 µM (A549): 100%; growth, % of control at 10 µM [12]: 105%; growth, % of control at 10 µM [13]: 112%; growth, % of control at 10 µM [14]: 98.5%; growth, % of control at 10 µM (K562): 106%; growth, % of control at 10 µM (SK-MEL-2): 119%; growth, % of control at 10 µM (ACHN): 109%; growth, % of control at 10 µM [15]: 106%; growth, % of control at 10 µM [16]: 101%; growth, % of control at 10 µM [17]: 94.2%; growth, % of control at 10 µM (MDA-MB-231): 102%; growth, % of control at 10 µM (MDA-MB-435): 98.2%; growth, % of control at 10 µM [18]: 106%; growth, % of control at 10 µM [19]: 97.1%; growth, % of control at 10 µM [20]: 94.5%; growth, % of control at 10 µM (SK-MEL-5): 105%
N#C/C(=C\c1cc(Br)cc(Br)c1)c1ccc2c(c1)OCO2	103	90.7	85.1	98.2	94.4	91.1	98.9	99.4	92.4	92.6	101	76.3	115	94.2	104	94.7	79	82	96.1	109	growth, % of control at 10 µM [10]: 94.4%; growth, % of control at 10 µM [11]: 81.3%; growth, % of control at 10 µM (NCI-H322M): 91.4%; growth, % of control at 10 µM (M14): 92.8%; growth, % of control at 10 µM (A549): 79.9%; growth, % of control at 10 µM [12]: 106%; growth, % of control at 10 µM [13]: 77.3%; growth, % of control at 10 µM [14]: 95.5%; growth, % of control at 10 µM (K562): 96.2%; growth, % of control at 10 µM (SK-MEL-2): 88.7%; growth, % of control at 10 µM (ACHN): 96.1%; growth, % of control at 10 µM [15]: 85.4%; growth, % of control at 10 µM [16]: 93.5%; growth, % of control at 10 µM [17]: 88.1%; growth, % of control at 10 µM (MDA-MB-231): 89.9%; growth, % of control at 10 µM (MDA-MB-435): 98.7%; growth, % of control at 10 µM [18]: 94.9%; growth, % of control at 10 µM [19]: 82.1%; growth, % of control at 10 µM [20]: 91.4%; growth, % of control at 10 µM (SK-MEL-5): 95.4%
